# Data as given in ChEMBL document CHEMBL4840357, “Functionalized Dioxonaphthoimidazoliums: A Redox Cycling Chemotype with Potent Bactericidal Activities against Mycobacterium tuberculosis” (J Med Chem, 2021).
# pEC50, pIC50: −log10 of the molar value. The source made the active and inactive calls. No cut-off for these calls is given here.
# Experiments:
# [1] = test system: Mycobacterium tuberculosis; format: functional; details: H37Rv ATCC 27294, 168 h, time 7 day
# [2] = test system: Mycobacterium tuberculosis; format: functional; details: H37Rv ATCC 27294, 168 h, time 7 day, read-out: MBC99.9
# Vero = test: Cytotoxicity against African green monkey Vero cells assessed as reduction in cell viability incubated for 48 hrs by CellTiter 96 aqueous one solution reagent based assay; details: Chlorocebus sabaeus
# [3] = Selectivity index, ratio of IC50 for African green monkey Vero cells to MIC50 for Mycobacterium tuberculosis H37Rv ATCC 27294; format: toxicity; details: read-out: Selectivity Index
# [4] = test system: Mycobacterium tuberculosis; format: functional, organism-based; details: H37Rv ATCC 27294, time 7.0 day
# [5] = Mutagenicity in Salmonella typhimurium TA100 at 1.5 to 64 ug in presence of S9 fraction by ames test; format: toxicity, subcellular, Salmonella enterica subsp. enterica serovar Typhimurium; details: dose 1.5-64 µg
# [6] = Aqueous solubility of compound at pH 7.4; format: physicochemical; details: buffer
# [7] = Permeability of compound incubated for 16 hrs by PAMPA; format: ADME
# [8] = Metabolic stability in rat microsomes assessed as half life preincubated for 5 mins followed by NADPH addition and measured upto 45 mins by LC-MS/MS analysis; format: ADME, Microsome; details: time <=50 min
# [9] = Oral bioavailability in Swiss albino mouse at 50 mg/kg measured upto 24 hrs by HPLC-LCMS analysis; format: ADME, organism-based; details: in vivo
# [10] = Volume of distribution in Swiss albino mouse at 50 mg/kg, po or 1 mg/kg, iv measured upto 24 hrs by HPLC-LCMS analysis; format: ADME, organism-based; details: in vivo
# [11] = Clearance in Swiss albino mouse at 50 mg/kg, po or 1 mg/kg, iv measured upto 24 hrs by HPLC-LCMS analysis; format: ADME, organism-based; details: in vivo
# [12] = Half life in Swiss albino mouse at 50 mg/kg, po or 1 mg/kg, iv measured upto 24 hrs by HPLC-LCMS analysis; format: ADME, organism-based; details: in vivo
# [13] = Mutagenicity in Salmonella typhimurium TA98 at 1.5 to 64 ug in presence of S9 fraction by ames test; format: toxicity, subcellular, Salmonella enterica subsp. enterica serovar Typhimurium; details: dose 1.5-64 µg
# [14] = Mutagenicity in Salmonella typhimurium TA98 at 1.5 to 64 ug in absence of S9 fraction by ames test; format: toxicity, Salmonella enterica subsp. enterica serovar Typhimurium; details: in vivo; dose 1.5-64 µg
# [15] = Mutagenicity in Salmonella typhimurium TA100 at 1.5 to 64 ug in absence of S9 fraction by ames test; format: toxicity, Salmonella enterica subsp. enterica serovar Typhimurium; details: in vivo; dose 1.5-64 µg
# [16] = test system: Mycolicibacterium smegmatis; test: Induction of NADH oxidation in Mycobacterium smegmatis mc24517 inverted membrane vesicles; format: functional, Membrane vesicle
# [17] = test system: Mycolicibacterium smegmatis; test: Induction of oxygen consumption in Mycobacterium smegmatis mc24517 inverted membrane vesicles; format: functional
# [18] = test system: Mycolicibacterium smegmatis; test: Induction of hydrogen […] production in Mycobacterium smegmatis mc24517 inverted membrane vesicles; format: functional
# [19] = test system: Mycolicibacterium smegmatis; test: Induction of pH gradient dissipation in Mycobacterium smegmatis mc24517 inverted membrane vesicles at 1 to 2 uM; format: functional; details: Membrane vesicle, dose 1-2 µM
SMILES,MIC50 [1],MIC90 [1],MBC [2],pIC50 (Vero),selectivity ratio [3],other results
CCCCCCn1c2c([n+](C3CCC4(CCCCC4)CC3)c1C)C(=O)c1ccccc1C2=O,0.3 µM,0.4 µM,1.6 µM,5.20,21,
CCCCCCCn1c2c([n+](CCCCC)c1C)C(=O)c1ccccc1C2=O.[Br-],0.77 µM,1.2 µM,6.3 µM,4.70,26,Activity [4]: Active
CC(C)/N=c1\cc2n(-c3ccc(Cl)cc3)c3ccccc3nc-2cc1Nc1ccc(Cl)cc1 [CLOFAZIMINE],0.2 µM,0.8 µM,,,,
CCCCCC[n+]1c2c(n(CC(C)C)c1C)C(=O)c1ccccc1C2=O,4 µM,6 µM,,,,
CCCCCCCCn1c2c([n+](C3CCC4(CCCCC4)CC3)c1C)C(=O)c1ccccc1C2=O,0.3 µM,0.4 µM,1.2 µM,5.30,17,
CCCCn1c2c([n+](C3CCC4(CCCCC4)CC3)c1C)C(=O)c1ccccc1C2=O.[Br-],0.28 µM,0.53 µM,1.6 µM,4.82,54,Activity [5]: Non-Toxic; solubility [6]: 118 µM; permeability [7]: Not Active; half-life [8]: 0.333 h; bioavailability [9]: 1%; Vd [10]: 27 L/kg; clearance [11]: 38 mL/min/kg; half-life [12]: 7 h; Activity [13]: Non-Toxic; Activity [14]: Non-Toxic; Activity [15]: Non-Toxic
CCCCCCn1c2c([n+](CCCCCC)c1C)C(=O)c1ccccc1C2=O,0.67 µM,1.5 µM,6.3 µM,4.85,21,
CCCCCCCCn1c2c([n+](CCCC)c1C)C(=O)c1ccccc1C2=O.[Br-],0.82 µM,1.5 µM,6.3 µM,4.62,29,pEC50 [16]: 6.60; Activity [5]: Non-Toxic; Activity [4]: Active; fold change (FC) [17]: 7; fold change (FC) [18]: 4; Activity [19]: Active; solubility [6]: 118 µM; permeability [7]: Not Active; half-life [8]: 0.333 h; bioavailability [9]: 1%; Vd [10]: 27 L/kg; clearance [11]: 38 mL/min/kg; half-life [12]: 7 h; Activity [13]: Non-Toxic; Activity [14]: Non-Toxic; Activity [15]: Non-Toxic
CCCCCCCC[n+]1c2c(n(CC(C)C)c1C)C(=O)c1ccccc1C2=O,2 µM,3 µM,,,,
NNC(=O)c1ccncc1 [ISONIAZID],1.6 µM,3.2 µM,,,,
